Data reported in US20210161890A1, “COMPOSITIONS AND METHODS FOR TREATING BRAIN DYSFUNCTION” (BACH PHARMA, INC., priority 2015, published 2021).
Where a name gives a salt, the structure may show the parent alone. Read-outs that look alike come from different tables or passages of the source.

Assays:
[1] = system: GWI rats
Description: Time-line of various procedures for animals in cohorts 1 and 2: Animals were exposed daily to GWIR-chemicals and stress for 28 days, and were subjected to a survival period of 4 months between exposure and treatment. The animals were then treated 5 times a week with 5-amino-2,3-dihydro-1,4-phthalazinedione or VEH for 8 weeks. […] The animals are then subjected to cognitive and mood function tests starting from the fifth week of treatment. Finally, euthanasia and tissue harvesting was performed after 8 weeks of treatment.
(§1) Exposure of animals to GWIR-chemicals and stress: Animals were exposed daily to the following chemicals for 28 days: pyridostigmine bromide (PB) at 2 mg/kg/day (via oral gavage), DEET at 60 mg/kg/day (via dermal application) and permethrin at 0.2 mg/kg/day (via dermal application). In addition, animals were subjected daily to 15 minutes of restraint stress using rat restrainers during the above 28-day period.
(§2) Survival period between exposure and treatment: Following the exposure to GMIR chemicals and stress, animals were maintained in the vivarium for four months in regular cages (two per cage) with ad libitum access to food and water. Administration of 5-amino-2,3-dihydro-1,4-phthalazinedione or VEH: Treatment was given for 8 weeks (5 times/week) via oral gavage, commencing in the 5th month after exposure to GMIR chemicals and stress. The doses of 5-amino-2,3-dihydro-1,4-phthalazinedione employed were 40 mg/kg, 80 mg/kg and 160 mg/kg.
(§3) Behavioral tests for assessing cognitive and mood function: We examined animals in all groups through stress-free behavioral tests. We used a Pattern Separation Test (PST) to assess cognitive function and a Sucrose Preference Test (SPT) to assess mood function.
This test comprised four days of monitoring. On day 1, rats were housed individually and given free access to two identical bottles containing 1% sucrose solution. Rats were trained to adapt to sucrose solution for 24 hours. On day 2, one bottle was replaced with a new bottle containing regular water for 24 hours. On day 3, rats were deprived of water and food for 23 hours, and then on day 4, rats were given free access to two bottles: one containing 100 ml of sucrose solution and another containing 100 ml of regular vyater. An hour later, the consumed volume in both bottles was recorded.

[2] = system: inflammatory cytokines in hippocampal tissues of GWI rats; settings: hippocampal tissue;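 note: relative cytokine levels by 16-cytokine plate array in hippocampus of rats given 28 days of GWI-related chemicals plus restraint stress, treated after a 4-month interval, tissue harvested after 8 weeks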
Description: (§4) Time-line of various procedures for animals in cohorts 1 and 2: Animals were exposed daily to GWIR-chemicals and stress for 28 days, and were subjected to a survival period of 4 months between exposure and treatment. The animals were then treated 5 times a week with 5-amino-2,3-dihydro-1,4-phthalazinedione or VEH for 8 weeks. […] Finally, euthanasia and tissue harvesting was performed after 8 weeks of treatment.
as §1, §2
Analyses of inflammation: The hippocampal tissues obtained from animals belonging to cohort 1 were also used to measure the relative levels of inflammatory cytokines in different groups of animals. We employed the Rat Cytokine Plate Array from Signosis, which facilitated analyses of 16 rat cytokines in a high-throughput manner. The cytokines included: tumor necrosis factor-alpha (TNF-α), interleukin=1 alpha (IL-1α), interleukin-1 beta (IL-1β), vascular endothelial growth factor (VEGF), fibroblast growth factor beta (FGFβ), interferon gamma (IFNγ), interleukin=5 (IL-5), interleukin=6 (IL-6), interleukin=15 (IL-15), leptin, monocyte chemoattractant protein=1 (MCP-1), IFN-gamma-inducible protein 10 (IP-10 or CXCL10), stem cell factor (SCF), Regulated on Activation, Normal T Cell Expressed and Secreted (Rantes), Macrophage inflammatory protein 1 alpha (MIP-1α) and transforming growth factor-beta (TGFβ).
Analyses of inflammation: The hippocampal tissues obtained from animals were used for measurement of the relative levels of inflammatory cytokines in different groups of animals. We employed “The Rat Cytokine Plate Array” from Signosis, which facilitated analyses of 16 rat cytokines in a high-throughput manner. The cytokines included: TNF-α, IL-1α, IL-1β, VEGF, FGFβ, , IFNγ, IL-5, IL-6, IL-15, leptin, MCP-1, IP-10 (or CXCL10), SCF, Rantes, MIP-1α and TGFβ.

[3] = system: GWI rats; settings: hippocampal tissue extracts
Description: as §4, §1
Survival period between exposure and treatment: Following the exposure to GMIR chemicals and stress, animals were maintained in the vivarium for four months in regular cages (two per cage) with ad libitum access to food and water. […]
Analyses of oxidative stress: The hippocampal tissues obtained from animals belonging to cohort 1 were used for the following measurements. […] Second, we measured lipid peroxidation through quantification of malondialdehyde. […]

[4] = system: GWI rats; settings: for pattern separation ability (exploration of novel vs familiar object on P2): GWI rats
Description: The animals were then treated 5 times a week with 5-amino-2,3-dihydro-1,4-phthalazinedione or VEH for 8 weeks. […] The animals are then subjected to cognitive and mood function tests starting from the fifth week of treatment.
(§5) Administration of 5-amino-2,3-dihydro-1,4-phthalazinedione or VEH: Treatment was given for 8 weeks (5 times/week) via oral gavage, commencing in the 5th month after exposure to GMIR chemicals and stress. The doses of 5-amino-2,3-dihydro-1,4-phthalazinedione employed were 40 mg/kg, 80 mg/kg and 160 mg/kg.
as §3
In this test, each rat successively explored two different sets of identical objects (object types 1 and 2) placed on distinct types of floor patterns (Patterns 1 and 2 [P1 and P2]) for 5 minutes each in the two acquisition trials (separated by 30 minutes). Thirty minutes later, in the testing phase (Trial-3), each rat explored an object from trial 2 (which is now a familiar object) and an object from Trial-1 (which is now a novel object) placed on the floor pattern employed in trial 2 (P2).
FIGS. 1B-1F compare percentages of object exploration time spent with the familiar object on pattern 2 (Fa on P2) and the novel object on pattern 2 (NO of P2) in different animal groups (n=11-14/group).

[5] = system: oxidative stress response and antioxidant genes in the hippocampus of GWI rats
Description: The animals were then treated 5 times a week with 5-amino-2,3-dihydro-1,4-phthalazinedione or VEH for 8 weeks. […] Finally, euthanasia and tissue harvesting was performed after 8 weeks of treatment.
as §5
Analyses of oxidative stress: The hippocampal tissues obtained from animals belonging to cohort 1 were used for the following measurements. First, we analyzed the oxidative stress response and the expression of antioxidant genes using the Rat Oxidative Stress Response PCR Array from Qiagen. We analyzed the expression of 84 key genes involved in oxidative stress response and antioxidant activity in the hippocampus of animals belonging to different groups using quantitative real time PCR (qRT-PCR) to ascertain the effects of 5-amino-2,3-dihydro-1,4-phthalazinedione treatment on oxidative stress.
(i) Expression of oxidative stress response and antioxidant genes: We analyzed the expression of 84 key genes involved in oxidative stress response and antioxidant activity in the hippocampus of animals belonging to different groups using quantitative real time PCR (qRTPCR).

[6] = GWI + MSL 40 mg/Kg, oral gavage 5 times/week for 8 weeks
[7] = column headed GWI + MSL 160 mg/Kg, oral gavage 5 times/week for 8 weeks
[8] = last treatment column, head prints no dose, oral gavage 5 times/week for 8 weeks

`Nc1cccc2c(=O)[nH][nH]c(=O)c12` [MSL, 5-amino-2,3-dihydro-1,4-phthalazinedione, monosodium salt] was tested, and the “preference for sucrose-containing water over regular water” value (“preference … over regular water” below) ([1]; 40 mg/kg oral gavage) was “remained impaired”, the “preference … over regular water” value ([1]; 80 mg/kg oral gavage) was “exhibited a clear preference for drinking sucrose-containing water over regular water” and the “preference … over regular water” value ([1]; 160 mg/kg oral gavage) was “exhibited a clear preference for drinking sucrose-containing water over regular water”. The “total volume (normal water+sucrose-containing water) consumed” value ([1]; all dose groups vs naive and VEH, one-way ANOVA) was “did not show differences between groups”, the “FGF-beta Mean ± S.E.M.” value [2, 6] was 0.17 ± 0.05 and the “IFN-gamma Mean ± S.E.M.” value [2, 6] was 0.19 ± 0.05. For the same molecule, the “IL-1alpha Mean ± S.E.M.” value [2, 6] was 0.17 ± 0.05, the “IL-1 beta Mean ± S.E.M.” value [2, 6] was 0.38 ± 0.05 and the “IL-5 Mean ± S.E.M.” value [2, 6] was 0.19 ± 0.05. For the same molecule, the “IL-6 Mean ± S.E.M.” value [2, 6] was 0.23 ± 0.05, the “IL-10 Mean ± S.E.M.” value [2, 6] was 0.085 ± 0.02 and the “IL-15 Mean ± S.E.M.” value [2, 6] was 0.13 ± 0.05. The “LEPTIN Mean ± S.E.M.” value [2, 6] was 0.40 ± 0.05, the “MCP-1 Mean ± S.E.M.” value [2, 6] was 0.09 ± 0.05 and the “MIP-1 alpha Mean ± S.E.M.” value [2, 6] was 0.06 ± 0.05. For the same molecule, the “Rantes (CCL5) Mean ± S.E.M.” value [2, 6] was 0.15 ± 0.05, the “SCF Mean ± S.E.M.” value [2, 6] was 0.32 ± 0.05 and the “TNF-alpha Mean ± S.E.M.” value [2, 6] was 0.15 ± 0.02. The “VEGF Mean ± S.E.M.” value [2, 6] was 0.19 ± 0.05, the FGF-beta [2, 7] was 0.21 ± 0.03 and the IFN-gamma [2, 7] was 0.23 ± 0.03. It also gave an IL-1alpha [2, 7] of 0.21 ± 0.03, an IL-1 beta [2, 7] of 0.42 ± 0.06 and an IL-5 [2, 7] of 0.22 ± 0.03. The IL-6 [2, 7] was 0.28 ± 0.02, the IL-10 [2, 7] was 0.103 ± 0.02 and the IL-15 [2, 7] was 0.14 ± 0.02. It also gave an LEPTIN [2, 7] of 0.50 ± 0.09, an MCP-1 [2, 7] of 0.13 ± 0.02 and an MIP-1 alpha [2, 7] of 0.07 ± 0.01. The “Rantes (CCL5)” value [2, 7] was 0.17 ± 0.03, the SCF [2, 7] was 0.36 ± 0.06 and the TNF-alpha [2, 7] was 0.19 ± 0.03. The VEGF [2, 7] was 0.22 ± 0.03, the “concentration of MIP-1α” value ([2]; GWI rats, decreases not significant statistically) was “reduced the concentration of MIP-1α” and the “concentration of 16 cytokines between groups” value ([2]; naive, GWI + VEH and GWI rats receiving different doses) was “no significant differences”. For the same molecule, the “FGF-beta Mean ± S.E.M.” value [2, 8] was 0.18 ± 0.03, the “IFN-gamma Mean ± S.E.M.” value [2, 8] was 0.28 ± 0.03 and the “IL-1alpha Mean ± S.E.M.” value [2, 8] was 0.17 ± 0.01. For the same molecule, the “IL-1 beta Mean ± S.E.M.” value [2, 8] was 0.39 ± 0.06, the “IL-5 Mean ± S.E.M.” value [2, 8] was 0.19 ± 0.04 and the “IL-6 Mean ± S.E.M.” value [2, 8] was 0.24 ± 0.03. The “IL-10 Mean ± S.E.M.” value [2, 8] was 0.086 ± 0.01, the “IL-15 Mean ± S.E.M.” value [2, 8] was 0.11 ± 0.02 and the “LEPTIN Mean ± S.E.M.” value [2, 8] was 0.43 ± 0.11. The “MCP-1 Mean ± S.E.M.” value [2, 8] was 0.10 ± 0.02, the “MIP-1 alpha Mean ± S.E.M.” value [2, 8] was 0.08 ± 0.02 and the “Rantes (CCL5) Mean ± S.E.M.” value [2, 8] was 0.18 ± 0.02. For the same molecule, the “SCF Mean ± S.E.M.” value [2, 8] was 0.32 ± 0.07, the “TNF-alpha Mean ± S.E.M.” value [2, 8] was 0.18 ± 0.02 and the “VEGF Mean ± S.E.M.” value [2, 8] was 0.21 ± 0.03. The MDA concentration ([3]; 40 mg/kg, p<0.05) was “higher concentration of MDA than naive control rats”, the MDA concentration ([3]; 160 mg/kg) was “reduced MDA concentration than GWI rats receiving VEH” and the “pattern separation ability (exploration of novel vs familiar object on P2)” value ([4]; 40 mg/kg oral gavage) was “remained impaired”. The “pattern separation ability (exploration of novel vs familiar object on P2)” value ([4]; 80 mg/kg oral gavage) was “remained impaired”, the “pattern separation ability (exploration of novel vs familiar object on P2)” value ([4]; 160 mg/kg oral gavage) was “displayed an ability for pattern separation” and the “total object exploration time between groups in Trial-3” value ([4]; GWI rats, 40, 80 and 160 mg/Kg groups vs naive and VEH, one-way ANOVA) was “did not show ditierences between groups”. For the same molecule, the “expression of 20 oxidative stress genes increased in GWI rats” value ([5]; 80 mg/kg) was “normalized to control levels”, the “expression of 20 oxidative stress genes increased in GWI rats” value ([5]; 160 mg/kg) was “normalized to control levels” and the “expression of 4 oxidative stress response genes (Prdx6, Sod2, Sqstm1, Srxn1)” value ([5]; vs GWI rats receiving VEH) was “completely normalized”.
